Experimental data from paper PMC11858051, “PK/PD Analysis of High-Dose Daptomycin Use in the Treatment of Bone and Joint Infections: Data from a Real-World Setting” (Microorganisms, 2025).

Legend:
[1] = C-reactive protein as surrogate efficacy marker during TDM; type: in vivo, human
Description: Therefore, we attempted to correlate the targeted AUC0–24h with CRP levels measured after treatment. The CRP was obtained at the time of diagnosis and at the end of treatment or between stages in two-stage exchange arthroplasty.

[2] = PK/PD target attainment at first TDM (eAUC0–24h and trough thresholds)
Description: All patients performed daptomycin TDM according to the clinical practice, and its daily area under the concentration–time curve (eAUC0–24h; including eAUC24–48h in case of other day administration, meaning when the drug dose was given every 48 h instead of every 24 h as indicated in the SmPC as the standard dose) was estimated according to the following Equation (1) reported in the literature [18, 19], based on daptomycin trough and peak plasma concentrations: (1) AUC0–24 h = 0.5 × t^′×Cmax +∫t^′infinityCmax ×e^−kel×(t)dt− ∫24infinityCmin ×e^−kel×(t)dt
For the analysis of the safety profile of daptomycin, we considered the main PK parameters expressing the overall exposure to the antibiotic and its property to be cleared, such as eAUC0–24h and the trough plasma concentrations, respectively. For the efficacy daptomycin PK/PD targets, we considered the main PK parameter indicating the daily exposure to daptomycin which is represented by the eAUC0–24h and we combined this with the pertinent PD parameter of interest of bacterial disease which is the Minimum Inhibitory Concentration (MIC) of the isolated pathogen.

[3] = human, in vivo
Description: This is a retrospective, monocentric study, including adult patients with a suspected or documented diagnosis of Gram-positive BJI who received daptomycin and whose plasma concentrations were measured once the steady state was reached. The study was approved by the Institutional Review Board of University of Udine (Prot IRB: 266/2023). We included all patients who were hospitalized at our University Hospital from July 2022 to December 2023. Data were retrieved from the hospital’s electronic registry, selecting all TDM performed by the Clinical Pharmacology Institute of ASU FC in the time frame of interest and then identifying the analyses required by the orthopedic wards (see Figure 1).
The peak and trough concentrations of daptomycin were determined through blood samples collected 30 min after the drug infusion and before dosing, respectively, on day 3 of therapy, once steady state was achieved. The drug clearance was estimated as apparent clearance, calculated as the […].
Daptomycin concentrations were measured by a validated High-Performance Liquid Chromatography–Ultraviolet (HPLC-UV) method previously published, using Nexera-i 2040 LC, Shimadzu® (Shimadzu USA Manufacturing INC, Canby, OR, USA).

[4] = single patient with CPK 1000 U/L

CCCCCCCCCC(=O)N[C@@H](Cc1c[nH]c2ccccc12)C(=O)N[C@H](CC(N)=O)C(=O)N[C@@H](CC(=O)O)C(=O)N[C@@H]1C(=O)NCC(=O)N[C@@H](CCCN)C(=O)N[C@@H](CC(=O)O)C(=O)N[C@H](C)C(=O)N[C@@H](CC(=O)O)C(=O)NCC(=O)N[C@H](CO)C(=O)N[C@@H]([C@H](C)CC(=O)O)C(=O)N[C@@H](CC(=O)c2ccccc2N)C(=O)O[C@@H]1C [daptomycin, Daptomycin]
cases with increase in absolute eosinophil count at follow-up (132 eosinophil count measurements at basal time and during TDM): 108 cases | other adverse events (during therapy): No other adverse events were reported | eAUC0–24h of the patient with high CPK [4]: 1051 µg·h/mL | plasma peak concentration of the patient with high CPK [4]: 84.4 mg/L | plasma trough concentration of the patient with high CPK [4]: 18.7 mg/L | plasma CPK concentration reached in the one patient with high CPK (single patient, baseline 325 U/L): 1000 U/L | median CRP during TDM ([1]; 155 measurements, median): 28.99 mg/L | median CRP when eAUC0–24h >939 mg·h/L ([1]; aggressive eAUC0–24h group, Mann–Whitney p = 0.029 vs <939): 17.47 mg/L | median CRP when eAUC0–24h < 939 mg·h/L ([1]; eAUC0–24h < 939 mg·h/L group): 40.60 mg/L | patients not receiving adequate doses for the PK/PD efficacy and safety targets ([2]; dosing suggested in the SmPC): 68.8% | patients underexposed (eAUC0–24h < 666 mg·h/L) ([2]; first TDM, 6 of 77 patients, doses according to SmPC): 7.8% | patients with high eAUC0–24h to monitor (939–1174 mg·h/L) and trough <24.3 mg/L ([2]; first TDM, 16 of 77 patients): 20.8% | patients with eAUC0–24h > 1174 mg·h/L ([2]; first TDM, 26 of 77 patients): 33.8% | patients on target (eAUC0–24h 666–939 mg·h/L and trough < 24.3 mg/L) ([2]; first TDM, 27 of 77 patients): 35.1% | estimated AUC0–24h, maximum value [3]: 2263 µg·h/mL | estimated AUC0–24h, minimum value [3]: 395.7 µg·h/mL | exposure in females compared with males (eAUC0–24h, trough, peak, clearance, also dose-adjusted) [3]: Females are overexposed to daptomycin compared with males | median dose-adjusted eAUC0–24h (eAUC0–24h/D), BMI > 25 kg/m^2 [3]: 112.6 | median dose-adjusted eAUC0–24h (eAUC0–24h/D), BMI ≤ 25 kg/m^2 [3]: 89.58 | median eAUC between 24 and 48 h after dosing (eAUC24–48h), other day administration [3]: 339.8 µg·h/mL | median eAUC within 24 h from dosing, other day administration [3]: 1060 µg·h/mL | median estimated AUC0–24h [3]: 996.3 µg·h/mL | median estimated drug clearance [3]: 12.2 mL/min
